pKi: −log10 of the molar value.
Tests used:
[1] = target: Calcium/calmodulin-dependent protein kinase kinase 2 (Homo sapiens) (UniProt Q96RR4); assay: Inhibition of tracer 236 binding to recombinant human GST-tagged full length CAMKK2 expressed in baculovirus expression system at 10 uM incubated for 60 mins by Lanthascreen assay relative to control
[2] = target: Protein-tyrosine kinase 6 (Homo sapiens) (UniProt Q13882); assay: Inhibition of recombinant human His-tagged full length BRK expressed in baculovirus expression system using Tyr 01 as substrate at 10 uM incubated for 60 mins by Z'-Lyte assay relative to control
[3] = target: Tyrosine-protein kinase Blk (Homo sapiens) (UniProt P51451); assay: Inhibition of recombinant human His-tagged full length BLK expressed in baculovirus expression system using Tyr 01 as substrate at 10 uM incubated for 60 mins by Z'-Lyte assay relative to control
[4] = target: Tyrosine-protein kinase BTK (Homo sapiens) (UniProt Q06187); assay: Inhibition of recombinant human His-tagged full length BTK expressed in baculovirus expression system using Tyr 01 as substrate at 10 uM incubated for 60 mins by Z'-Lyte assay relative to control
[5] = target: Mitogen-activated protein kinase 10 (Homo sapiens) (UniProt P53779); assay: Inhibition of recombinant human N-terminal GST-tagged full length JNK3 expressed in baculovirus expression system using Ser/Thr 04 as substrate at 10 uM incubated for 60 mins by Z'-lyte assay relative to control
[6] = target: Vascular endothelial growth factor receptor 2 (Homo sapiens) (UniProt P35968); assay: Inhibition of recombinant human His-tagged KDR (789 to 1356 residues) expressed in baculovirus expression system using Tyr 01 as substrate at 10 uM incubated for 60 mins by Z'-lyte assay relative to control
[7] = target: T1, Receptor-interacting serine/threonine-protein kinase 1 (Homo sapiens, UniProt Q13546); assay: Inhibition of recombinant human His/GST-tagged RIPK1 (2 to 257 residues) expressed in insect expression system incubated for 2 hrs by fluorescence polarization assay; details: read-out: Ki(app)
T1 sequence (Q13546 whole entry): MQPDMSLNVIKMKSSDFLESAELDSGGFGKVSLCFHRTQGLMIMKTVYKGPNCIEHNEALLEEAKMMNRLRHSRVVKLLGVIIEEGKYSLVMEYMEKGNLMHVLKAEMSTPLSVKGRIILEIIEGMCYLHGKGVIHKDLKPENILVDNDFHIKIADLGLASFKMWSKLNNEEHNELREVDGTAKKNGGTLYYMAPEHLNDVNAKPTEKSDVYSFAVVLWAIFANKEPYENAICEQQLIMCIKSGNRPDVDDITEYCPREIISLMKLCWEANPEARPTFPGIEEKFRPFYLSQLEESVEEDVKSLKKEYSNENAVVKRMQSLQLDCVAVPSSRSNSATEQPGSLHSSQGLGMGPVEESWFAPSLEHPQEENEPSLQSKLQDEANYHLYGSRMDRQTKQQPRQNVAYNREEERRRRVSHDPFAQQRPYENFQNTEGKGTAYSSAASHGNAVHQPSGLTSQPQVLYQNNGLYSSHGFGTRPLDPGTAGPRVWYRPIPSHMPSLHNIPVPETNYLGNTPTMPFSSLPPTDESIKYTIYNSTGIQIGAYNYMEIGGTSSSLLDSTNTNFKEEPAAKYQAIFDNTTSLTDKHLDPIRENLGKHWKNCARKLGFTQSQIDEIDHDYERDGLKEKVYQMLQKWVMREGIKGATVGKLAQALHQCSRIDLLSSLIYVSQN

[8] = target: RAC-beta serine/threonine-protein kinase (Homo sapiens) (UniProt P31751); assay: Inhibition of recombinant human His-tagged full length AKT2 expressed in baculovirus expression system using Ser/Thr 06 as substrate at 10 uM incubated for 60 mins by Z'-Lyte assay relative to control
[9] = target: Cyclin-dependent kinase 7/ cyclin H (Homo sapiens) (UniProt P51946+P50613); assay: Inhibition of recombinant human His-tagged full length CDK7/Cyclin H expressed in baculovirus expression system using CDK7/9tide as substrate at 10 uM incubated for 60 mins by Adapta assay relative to control
[10] = target: Casein kinase I isoform alpha (Homo sapiens) (UniProt P48729); assay: Inhibition of recombinant human GST-tagged full length CK1alpha1 expressed in baculovirus expression system using Ser/Thr 11 as substrate at 10 uM incubated for 60 mins by Z'-Lyte assay relative to control
[11] = target: Calcium/calmodulin-dependent protein kinase type IV (Homo sapiens) (UniProt Q16566); assay: Inhibition of recombinant human GST-tagged full length CAMK4 expressed in Escherichia coli expression system using Ser/Thr 13 as substrate at 10 uM incubated for 60 mins by Z'-Lyte assay relative to control
[12] = target: Death-associated protein kinase 1 (Homo sapiens) (UniProt P53355); assay: Inhibition of recombinant human N-terminal GST-tagged DAPK1 (1 to 363 residues) expressed in baculovirus expression system using ZIPtide as substrate at 10 uM incubated for 60 mins by Adapta assay relative to control
[13] = target: Insulin-like growth factor 1 receptor (Homo sapiens) (UniProt P08069); assay: Inhibition of recombinant human His-tagged IGF1R (960 to 1397 residues) expressed in baculovirus expression system using Tyr 01 as substrate at 10 uM incubated for 60 mins by Z'-Lyte assay relative to control
[14] = target: Inhibitor of nuclear factor kappa-B kinase subunit alpha (Homo sapiens) (UniProt O15111); assay: Inhibition of recombinant human His-tagged full length IKKalpha expressed in baculovirus expression system at 10 uM incubated for 60 mins by Adapta assay relative to control
[15] = target: MAP kinase-activated protein kinase 2 (Homo sapiens) (UniProt P49137); assay: Inhibition of recombinant human His-tagged full length MAPKAPK2 expressed in Escherichia coli expression system using Ser/Thr 04 as substrate at 10 uM incubated for 60 mins by Z'-lyte assay relative to control
[16] = target: Mitogen-activated protein kinase kinase kinase 2 (Homo sapiens) (UniProt Q9Y2U5); assay: Inhibition of tracer 236 binding to recombinant human GST-tagged full length MEKK2 expressed in baculovirus expression system at 10 uM incubated for 60 mins by Lanthascreen assay relative to control
[17] = target: cAMP-dependent protein kinase catalytic subunit PRKX (Homo sapiens) (UniProt P51817); assay: Inhibition of recombinant human GST-tagged full length PRKX expressed in baculovirus expression system using Ser/Thr 01 as substrate at 10 uM incubated for 60 mins by Z'-lyte assay relative to control
TAK1/TAB1 (Homo sapiens) = TAK1/TAB1 (Homo sapiens) (UniProt Q15750+O43318); assay: Inhibition of tracer 236 binding to recombinant human His-tagged full length TAK1-TAB1 expressed in baculovirus expression system at 10 uM incubated for 60 mins by Lanthascreen assay relative to control
[18] = target: Leukocyte tyrosine kinase receptor (Homo sapiens) (UniProt P29376); assay: Inhibition of recombinant human GST-tagged LTK (450 to 864 residues) expressed in baculovirus expression system using Tyr 06 as substrate at 10 uM incubated for 60 mins by Z'-Lyte assay relative to control
Chain of Leukocyte tyrosine kinase receptor (Homo sapiens) (P29376 whole entry, the tested form may be a part): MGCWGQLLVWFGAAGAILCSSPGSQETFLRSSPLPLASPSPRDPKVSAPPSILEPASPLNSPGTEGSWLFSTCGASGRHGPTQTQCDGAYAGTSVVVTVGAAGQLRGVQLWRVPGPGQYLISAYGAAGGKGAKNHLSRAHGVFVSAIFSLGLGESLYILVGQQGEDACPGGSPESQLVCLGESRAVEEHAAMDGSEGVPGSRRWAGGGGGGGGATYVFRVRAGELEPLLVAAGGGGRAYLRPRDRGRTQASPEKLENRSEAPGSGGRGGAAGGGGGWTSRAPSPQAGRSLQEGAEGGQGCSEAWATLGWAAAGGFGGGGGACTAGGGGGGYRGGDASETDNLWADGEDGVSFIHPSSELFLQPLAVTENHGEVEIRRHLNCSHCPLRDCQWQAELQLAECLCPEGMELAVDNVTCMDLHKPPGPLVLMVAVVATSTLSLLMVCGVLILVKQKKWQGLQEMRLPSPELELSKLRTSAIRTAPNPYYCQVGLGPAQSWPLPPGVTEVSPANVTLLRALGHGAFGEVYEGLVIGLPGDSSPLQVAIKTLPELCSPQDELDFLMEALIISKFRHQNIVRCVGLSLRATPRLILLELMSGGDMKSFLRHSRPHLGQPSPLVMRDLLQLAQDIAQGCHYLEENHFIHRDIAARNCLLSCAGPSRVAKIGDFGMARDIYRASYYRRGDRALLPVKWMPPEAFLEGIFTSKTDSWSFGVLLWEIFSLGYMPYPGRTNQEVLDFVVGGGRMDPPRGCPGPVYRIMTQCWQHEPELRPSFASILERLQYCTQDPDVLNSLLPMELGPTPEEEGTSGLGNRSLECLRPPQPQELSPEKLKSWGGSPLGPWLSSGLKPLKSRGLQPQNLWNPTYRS

Chain of Insulin-like growth factor 1 receptor (Homo sapiens) (P08069 31-736 limits assumed): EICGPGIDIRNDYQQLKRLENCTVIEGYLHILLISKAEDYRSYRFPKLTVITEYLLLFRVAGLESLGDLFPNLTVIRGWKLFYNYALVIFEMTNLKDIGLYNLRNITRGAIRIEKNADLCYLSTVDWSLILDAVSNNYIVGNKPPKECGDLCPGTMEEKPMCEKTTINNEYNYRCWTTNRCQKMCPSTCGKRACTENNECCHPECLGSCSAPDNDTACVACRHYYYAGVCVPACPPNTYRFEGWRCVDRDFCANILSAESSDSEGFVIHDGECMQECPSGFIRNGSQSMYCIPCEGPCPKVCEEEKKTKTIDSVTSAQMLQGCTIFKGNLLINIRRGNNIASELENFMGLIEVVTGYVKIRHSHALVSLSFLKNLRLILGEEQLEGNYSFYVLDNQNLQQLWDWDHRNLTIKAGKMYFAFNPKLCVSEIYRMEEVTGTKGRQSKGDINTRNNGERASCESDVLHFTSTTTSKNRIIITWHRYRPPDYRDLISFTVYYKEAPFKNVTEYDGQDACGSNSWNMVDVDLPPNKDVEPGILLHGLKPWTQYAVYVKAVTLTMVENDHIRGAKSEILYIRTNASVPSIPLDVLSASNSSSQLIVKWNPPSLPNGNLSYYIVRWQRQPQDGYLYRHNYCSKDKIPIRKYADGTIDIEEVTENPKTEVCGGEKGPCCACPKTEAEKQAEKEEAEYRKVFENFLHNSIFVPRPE
Chain of Insulin-like growth factor 1 receptor (Homo sapiens) (P08069 741-1367 limits assumed): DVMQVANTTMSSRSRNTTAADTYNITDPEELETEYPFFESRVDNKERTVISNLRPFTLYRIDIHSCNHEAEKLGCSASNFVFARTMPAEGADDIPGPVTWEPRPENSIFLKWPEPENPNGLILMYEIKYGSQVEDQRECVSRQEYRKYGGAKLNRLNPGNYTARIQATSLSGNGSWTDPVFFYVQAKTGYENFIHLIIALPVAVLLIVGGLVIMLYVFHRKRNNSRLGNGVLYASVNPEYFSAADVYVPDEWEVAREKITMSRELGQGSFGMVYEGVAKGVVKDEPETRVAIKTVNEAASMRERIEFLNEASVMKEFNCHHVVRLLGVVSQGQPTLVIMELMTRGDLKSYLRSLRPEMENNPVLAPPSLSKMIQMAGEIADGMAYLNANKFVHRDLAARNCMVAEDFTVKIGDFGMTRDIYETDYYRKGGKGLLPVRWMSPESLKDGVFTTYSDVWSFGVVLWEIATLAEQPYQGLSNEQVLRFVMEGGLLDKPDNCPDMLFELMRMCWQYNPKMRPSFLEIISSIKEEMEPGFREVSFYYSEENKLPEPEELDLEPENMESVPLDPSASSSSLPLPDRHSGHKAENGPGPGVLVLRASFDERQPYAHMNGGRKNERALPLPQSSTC
Chain of Mitogen-activated protein kinase 10 (Homo sapiens) (P53779 whole entry, the tested form may be a part): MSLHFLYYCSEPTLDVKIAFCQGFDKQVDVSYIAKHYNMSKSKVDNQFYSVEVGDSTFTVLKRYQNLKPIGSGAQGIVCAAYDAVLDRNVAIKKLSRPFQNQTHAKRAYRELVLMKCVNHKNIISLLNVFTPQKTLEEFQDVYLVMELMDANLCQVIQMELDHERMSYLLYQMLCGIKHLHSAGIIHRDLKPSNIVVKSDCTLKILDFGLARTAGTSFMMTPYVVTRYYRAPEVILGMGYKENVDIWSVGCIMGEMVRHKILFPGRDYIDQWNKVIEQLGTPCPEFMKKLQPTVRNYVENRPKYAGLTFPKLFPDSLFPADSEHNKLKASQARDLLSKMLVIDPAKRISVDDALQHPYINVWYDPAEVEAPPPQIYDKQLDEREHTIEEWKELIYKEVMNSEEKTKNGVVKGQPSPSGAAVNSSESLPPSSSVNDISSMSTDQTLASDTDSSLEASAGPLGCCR
Chain of Casein kinase I isoform alpha (Homo sapiens) (P48729 whole entry, looked up, canonical isoform): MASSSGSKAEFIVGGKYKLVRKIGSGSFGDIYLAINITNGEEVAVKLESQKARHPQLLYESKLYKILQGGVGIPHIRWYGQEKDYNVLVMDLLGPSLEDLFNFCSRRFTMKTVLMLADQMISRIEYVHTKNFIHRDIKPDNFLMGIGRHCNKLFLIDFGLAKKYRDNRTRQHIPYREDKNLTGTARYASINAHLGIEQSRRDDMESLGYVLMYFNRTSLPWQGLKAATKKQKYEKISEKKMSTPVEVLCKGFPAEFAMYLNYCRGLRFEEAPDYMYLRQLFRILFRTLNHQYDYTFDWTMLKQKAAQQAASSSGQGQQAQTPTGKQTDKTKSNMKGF
Chain of Inhibitor of nuclear factor kappa-B kinase subunit alpha (Homo sapiens) (O15111 whole entry): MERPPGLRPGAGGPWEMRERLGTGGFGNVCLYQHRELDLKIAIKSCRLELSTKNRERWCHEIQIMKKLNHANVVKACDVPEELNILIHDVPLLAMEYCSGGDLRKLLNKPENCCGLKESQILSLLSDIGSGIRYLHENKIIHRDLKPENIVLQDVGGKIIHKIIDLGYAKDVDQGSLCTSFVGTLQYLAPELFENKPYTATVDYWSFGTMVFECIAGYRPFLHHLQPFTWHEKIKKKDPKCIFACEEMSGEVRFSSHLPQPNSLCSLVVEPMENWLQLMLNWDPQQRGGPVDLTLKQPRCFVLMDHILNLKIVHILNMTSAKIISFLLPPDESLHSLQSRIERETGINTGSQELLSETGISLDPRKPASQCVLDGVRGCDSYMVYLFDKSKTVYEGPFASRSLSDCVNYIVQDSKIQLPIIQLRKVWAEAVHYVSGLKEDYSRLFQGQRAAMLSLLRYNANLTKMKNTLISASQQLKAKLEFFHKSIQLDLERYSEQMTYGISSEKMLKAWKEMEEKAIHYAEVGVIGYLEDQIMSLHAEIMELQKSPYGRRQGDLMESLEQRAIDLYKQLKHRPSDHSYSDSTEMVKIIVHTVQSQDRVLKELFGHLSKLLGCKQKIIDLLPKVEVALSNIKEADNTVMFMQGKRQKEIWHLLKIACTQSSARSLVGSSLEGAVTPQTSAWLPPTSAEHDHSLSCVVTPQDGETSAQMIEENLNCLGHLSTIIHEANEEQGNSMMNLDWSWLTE
Chain of Tyrosine-protein kinase BTK (Homo sapiens) (Q06187 whole entry): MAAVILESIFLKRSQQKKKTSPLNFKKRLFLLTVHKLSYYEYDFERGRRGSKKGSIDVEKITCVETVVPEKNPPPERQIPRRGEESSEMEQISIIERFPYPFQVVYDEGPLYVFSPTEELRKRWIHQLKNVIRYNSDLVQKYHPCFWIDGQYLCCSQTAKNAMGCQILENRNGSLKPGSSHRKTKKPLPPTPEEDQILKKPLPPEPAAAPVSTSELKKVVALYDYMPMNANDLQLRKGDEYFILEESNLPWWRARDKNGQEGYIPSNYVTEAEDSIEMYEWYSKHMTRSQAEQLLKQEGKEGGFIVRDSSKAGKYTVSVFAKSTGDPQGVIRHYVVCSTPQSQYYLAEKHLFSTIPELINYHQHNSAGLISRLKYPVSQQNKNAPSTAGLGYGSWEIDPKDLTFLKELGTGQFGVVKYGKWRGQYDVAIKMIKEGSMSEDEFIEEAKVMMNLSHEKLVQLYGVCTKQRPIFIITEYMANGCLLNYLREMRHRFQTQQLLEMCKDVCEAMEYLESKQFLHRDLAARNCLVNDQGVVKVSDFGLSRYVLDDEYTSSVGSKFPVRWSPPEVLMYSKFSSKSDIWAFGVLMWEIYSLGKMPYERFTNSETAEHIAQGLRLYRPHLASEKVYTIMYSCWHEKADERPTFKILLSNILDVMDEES
Chain of RAC-beta serine/threonine-protein kinase (Homo sapiens) (P31751 whole entry): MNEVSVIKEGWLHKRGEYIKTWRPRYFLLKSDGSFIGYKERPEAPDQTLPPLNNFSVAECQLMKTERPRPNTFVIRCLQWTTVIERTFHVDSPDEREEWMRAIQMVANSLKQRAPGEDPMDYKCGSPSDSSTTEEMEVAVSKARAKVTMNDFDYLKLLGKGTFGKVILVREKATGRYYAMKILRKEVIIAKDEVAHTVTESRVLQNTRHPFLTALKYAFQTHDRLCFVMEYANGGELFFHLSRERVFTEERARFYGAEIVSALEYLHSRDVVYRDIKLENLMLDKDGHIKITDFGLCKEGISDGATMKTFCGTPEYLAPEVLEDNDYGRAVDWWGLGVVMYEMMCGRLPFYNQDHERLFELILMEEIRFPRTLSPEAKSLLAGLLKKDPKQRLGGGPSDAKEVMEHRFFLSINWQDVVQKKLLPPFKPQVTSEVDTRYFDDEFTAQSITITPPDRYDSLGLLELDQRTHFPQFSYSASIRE

Q: With `CN1C(=O)[C@@H](NC(=O)c2n[nH]c3ncc(C(F)(F)C(F)(F)F)cc23)COc2ccccc21` as the compound, how does the inhibition [1] read?
A: 2%

Q: What about the inhibition [2] of the same compound?
A: 0.5%

Q: What about the inhibition [3] of the same compound?
A: 2%

Q: What about the inhibition [4] of the same compound?
A: -2%

Q: And the inhibition [5]?
A: 7%

Q: What about the inhibition [6] of the same compound?
A: 8%

Q: What about the pKi [7] of the same compound?
A: 8.22

Q: What about the inhibition [8] of the same compound?
A: 7.5%

Q: And the inhibition [9]?
A: 14.5%

Q: And the inhibition [10]?
A: 1.5%

Q: What about the inhibition [11] of the same compound?
A: -2%

Q: And the inhibition [12]?
A: 0.5%

Q: What about the inhibition [13] of the same compound?
A: -0.5%

Q: What about the inhibition [14] of the same compound?
A: -4%

Q: What about the inhibition [15] of the same compound?
A: 4%

Q: And the inhibition [16]?
A: -1%

Q: And the inhibition [17]?
A: 4.5%

Q: What about the inhibition (TAK1/TAB1 (Homo sapiens)) of the same compound?
A: 7.5%

Q: What about the inhibition [18] of the same compound?
A: 2%
